According to US20210268070A1, “Use of Immunomodulators to Control Infection and Stimulate Healing in Normal and Diabetic Wounds” (priority 2018, published 2021):

Experiments:
[1] = system: USA300 MRSA; test: Implant model of infection with USA300 MRSA; format: in vivo; settings: C57B mice, 10^6 CFU USA300, implant model, topical LPS or fMLP vs vancomycin 40 mg/kg i.p., 24 h, FIG. 2C
Description: The implant model of infection in C57B mice was used for 10^6 PA103 (FIG. 2A) or 10^6 USA300 MRSA (FIG. 2C). The wound model of infection was used for 10^6 PA103 in C57BL mice (FIG. 2B) or diabetic db/db mice (FIG. 2D). Infection was carried out at the time of surgery by adding bacteria directly to the surgical sites. Immunomodulators, namely, LPS (10 ng or 100 ng), fMLP (10 ng or 100 ng), CCL3 (1 μg) were added topically at the surgical sites at the time of surgery & infection. GM-CSF (10 μg/kg), tobramycin (Tob at 3.5 mg/kg), and vancomycin (40 mg/kg) were added systemically by i.p. injection 1 h before surgical implantation and infection. Infection levels were determined 24 h following infection (N>4 animals/group; NS=not significant, * p<0.01, ** p<0.001, ***p<0.0001 One-way ANOVA).
(15A) C57BL/6 mice received 40 mg/kg prophylaxis (Sys) vancomycin (Vanc) or 3.5 mg/kg tobramycin (Tobra) by i.p. injection. (15A) 1 h after antibiotic administration, 106 CFU of USA300 was added to implant after insertion into facia (Implant Model). (15B) 1 h after antibiotic administration, 10^6CFU of USA300 or 106CFU PA103 (Pa) were added full-thickness wounds in of C57BL/6 (Wound Model). Infection levels at implant surgical site (Tissue & Implant) or a distant site (Spleen), or wound tissues were assessed 24 h following infection. (N>4 animals/group, * p<0.01, ***p<0.0001, One-way ANOVA).
We assessed these immunomodulators for their ability to control wound and/or implant SS's in normal (C57BL/6) or diabetic (db/db) mice. We acknowledge that diabetic individuals are not as immunocompromised as other immunocompromised patient groups. […] All immunomodulators were added locally at the surgical sites at the time of infection, except GM-CSF (10 μg/kg) which was administered systemically by i.p. injection 1 h prior to surgery per its FDA-approved route of delivery. […] CCL3 and GM-CSF are also tested using the implant model of infection. Here, we tested CCL3 and GM-CSF in the wound model of infection in C57B mice.
Implant surgery and wound surgery and surgical site infection are performed according to the following method. On the day of surgery, all mice are anesthetized by an intraperitoneal injection of a ketamine/xylazine mixture (90 mg/kg ketamine+5 mg/kg xylazine for mice). The back of the animals is shaved using an electric shave and scrubbed with alcohol swabs 3 times, a topical antiseptic solution (Hibiclens; chlorhexidine gluconate) is applied to the skin. The surgical procedures are performed with sterile instruments, sterile surgical gloves, and aseptic techniques as follows. For wound surgical procedure, a sterile biopsy punch (5-7 mm diameter) is used to punch through the full thickness of the back skin below the shoulder blades. […]

[2] = system: inflammatory responses (IL-1 β, TNFα); test: Neutrophilia and inflammatory responses in diabetic wounds; format: in vivo, db/db mice
From the text: P. aeruginosa PA103 10^3 N=4; Significance determined as compared to PBS *<0.05, **p<0.01, ***p<0.001.
FIG. 13A illustrates that TLR4 ligand increases antimicrobial defenses in diabetic wounds against P. aeruginosa and FIG. 13B TLR4 ligand stimulates inflammatory responses in diabetic wounds. N=4; Significance determined as compared to PBS *<0.05, **p<0.01, ***p<0.001.
Tissue-Tek O.C.T. (Sakura); Lysing Matrix D (MP Biomedicals); Collagenase (Roche Diagnostics), Hematoxylin and eosin (H&E); DNase 1 (Sigma-Aldrich); Hyluronidase, Streptozotocin (Sigma-Aldrich); Trizol (Invitrogen); CD45 antibody (eBioscience, Inc); Ly6C; Ly6G; CD11b; CD3 (BioLegend); CD68; GAPDH (Sigma-Aldrich). Ly6G and CD68 (Abcam); Primer pairs for GAPDH were from Qiagen. Masson's trichrome stain (Sigma-Aldrich); Picrosirius red (Abcam); Fibronectin (Chemicon International); Insulin slow-release capsules (Linplant; LinShin, Toronto, Canada) CCL3 (R&D Systems) fMLP (Sigma-Aldrich); II-1β ELISA (R&D Systems); TNF-α ELISA (R&D Systems).

Molecule | controlling USA300 MRSA infection, compared with prophylaxis vancomycin [1] | inflammatory responses in diabetic wounds ([2]; compared to PBS, FIG. 13B) | neutrophilia in infected diabetic wounds ([2]; P. aeruginosa PA103 10^3, FIG. 12A) | persistent inflammatory responses (IL-1 β, TNFα) in infected diabetic wounds ([2]; P. aeruginosa PA103 10^3, FIG. 12B, 12C)
lipopolysaccharide [LPS] | as effective (if not more) | stimulates |  | 
CSCC[C@H](NC=O)C(=O)N[C@@H](CC(C)C)C(=O)N[C@@H](Cc1ccccc1)C(=O)O [fMLP, N-Formylmethionyl-leucyl-phenylalanine] | as effective (if not more) |  |  | 
Chemokine (C-C motif) ligand 3 (protein, listed as Homo sapiens, class 1 immunomodulator) MQVSTAALAVLLCTMALCNQFSASLAADTPTACCFSYTSRQIPQNFIADYFETSSQCSKPGVIFLTKRSRQVCADPSEEWVQKYVSDLELSA |  |  | does not lead to | does not lead to
